According to ChEMBL document CHEMBL1671738, “In vitro pharmacokinetic and pharmacodynamic evaluation of S-013420 against Haemophilus influenzae and Streptococcus pneumoniae” (Antimicrob Agents Chemother, 2010):
Converted amounts (≈) assume the structure as drawn.

How the values were obtained:
[1] = tested on: Streptococcus pneumoniae; experiment: Minimum antibacterial activity against erythromycin-susceptible Streptococcus pneumoniae SR26229 clinical isolate based on area above the killing curve index in vitro pharmacodynamic model; type: ADME, organism-based; conditions: in vivo
[2] = tested on: Streptococcus pneumoniae; experiment: Maximum antibacterial activity against erythromycin-resistant Streptococcus pneumoniae SR26132 clinical isolate expressing ermB gene based on viable cell reduction at 24 hrs index in vitro pharmacodynamic model; type: ADME, organism-based
[3] = tested on: Streptococcus pneumoniae; experiment: Maximum antibacterial activity against erythromycin-resistant Streptococcus pneumoniae SR26143 clinical isolate expressing mefA gene based on viable cell reduction at 24 hrs index in vitro pharmacodynamic model; type: ADME, organism-based
[4] = tested on: Haemophilus influenzae; experiment: Ratio of Cmax to MIC in Haemophilus influenzae SR24169 clinical isolate based on viable cell reduction at 24 hrs index by maximum antibacterial activity criteria based in vitro pharmacodynamic model; type: functional
[5] = tested on: Haemophilus influenzae; experiment: Ratio of Cmax to MIC in Haemophilus influenzae SR24169 clinical isolate based on viable cell reduction at 24 hrs index by minimum antibacterial activity criteria based in vitro pharmacodynamic model; type: functional
[6] = tested on: Streptococcus pneumoniae; experiment: Half maximum antibacterial activity against erythromycin-resistant Streptococcus pneumoniae SR26132 clinical isolate expressing ermB gene based on area above the killing curve index in vitro pharmacodynamic model; type: ADME, organism-based; conditions: in vivo
[7] = tested on: Streptococcus pneumoniae; experiment: Maximum antibacterial activity against erythromycin-susceptible Streptococcus pneumoniae SR26229 clinical isolate based on area above the killing curve index in vitro pharmacodynamic model; type: ADME, organism-based; conditions: in vivo
[8] = tested on: Haemophilus influenzae; experiment: Ratio of AUC (0 to 24 hrs) to MIC in Haemophilus influenzae SR24169 clinical isolate based on viable cell reduction at 24 hrs index by maximum antibacterial activity criteria based in vitro pharmacodynamic model; type: functional
[9] = tested on: Streptococcus pneumoniae; experiment: Antibacterial activity against erythromycin-resistant Streptococcus pneumoniae SR26132 clinical isolate expressing ermB gene by broth microdilution method; type: functional
[10] = tested on: Haemophilus influenzae; experiment: Ratio of Cmax to MIC in Haemophilus influenzae SR24169 clinical isolate based on area above the killing curve index by half maximum antibacterial activity criteria based in vitro pharmacodynamic model; type: functional
[11] = tested on: Streptococcus pneumoniae; experiment: Maximum antibacterial activity against erythromycin-susceptible Streptococcus pneumoniae SR26229 clinical isolate based on viable cell reduction at 24 hrs index in vitro pharmacodynamic model; type: ADME, organism-based
[12] = tested on: Haemophilus influenzae; experiment: Ratio of Cmax to MIC in Haemophilus influenzae SR24169 clinical isolate based on area above the killing curve index by maximum antibacterial activity criteria based in vitro pharmacodynamic model; type: functional
[13] = tested on: Haemophilus influenzae; experiment: Ratio of AUC (0 to 24 hrs) to MIC in Haemophilus influenzae SR24169 clinical isolate based on area above the killing curve index by half maximum antibacterial activity criteria based in vitro pharmacodynamic model; type: functional
[14] = tested on: Streptococcus pneumoniae; experiment: Half life in erythromycin-susceptible Streptococcus pneumoniae SR26229 clinical isolate in vitro pharmacodynamic model; type: ADME, organism-based; conditions: in vivo
[15] = tested on: Haemophilus influenzae; experiment: Ratio of AUC (0 to 24 hrs) to MIC in Haemophilus influenzae SR24169 clinical isolate based on viable cell reduction at 24 hrs index by half maximum antibacterial activity criteria based in vitro pharmacodynamic model; type: functional
[16] = tested on: Haemophilus influenzae; experiment: %TMIC in Haemophilus influenzae SR24169 clinical isolate based on area above the killing curve index by minimum antibacterial activity criteria based in vitro pharmacodynamic model; type: functional
[17] = tested on: Haemophilus influenzae; experiment: %TMIC in Haemophilus influenzae SR24169 clinical isolate based on area above the killing curve index by maximum antibacterial activity criteria based in vitro pharmacodynamic model; type: functional
[18] = tested on: Haemophilus influenzae; experiment: Ratio of AUC (0 to 24 hrs) to MIC in Haemophilus influenzae SR24169 clinical isolate by bacteriostatic effect criteria based in vitro pharmacodynamic model; type: functional
[19] = tested on: Haemophilus influenzae; experiment: AUC (0 to 24 hrs) in Haemophilus influenzae SR24169 clinical isolate in vitro pharmacodynamic model; type: ADME, organism-based; parameters: time < 24 hr; conditions: in vivo
[20] = tested on: Haemophilus influenzae; experiment: Antibacterial activity against Haemophilus influenzae SR24169 clinical isolate by broth microdilution method; type: functional
[21] = tested on: Streptococcus pneumoniae; experiment: AUC (0 to 24 hrs) in erythromycin-resistant Streptococcus pneumoniae SR26143 clinical isolate expressing mefA in vitro pharmacodynamic model; type: ADME, organism-based; parameters: time < 24 hr; conditions: in vivo
[22] = tested on: Streptococcus pneumoniae; experiment: Half maximum antibacterial activity against erythromycin-resistant Streptococcus pneumoniae SR26143 clinical isolate expressing mefA gene based on viable cell reduction at 24 hrs index in vitro pharmacodynamic model; type: ADME, organism-based
[23] = tested on: Streptococcus pneumoniae; experiment: Ratio of AUC (0 to 24 hrs) to MIC in erythromycin-susceptible Streptococcus pneumoniae SR26229 clinical isolate by maximal efficacy criteria based in vitro pharmacodynamic model; type: functional
[24] = tested on: Haemophilus influenzae; experiment: %TMIC in Haemophilus influenzae SR24169 clinical isolate based on viable cell reduction at 24 hrs index by minimum antibacterial activity criteria based in vitro pharmacodynamic model; type: functional
[25] = tested on: Streptococcus pneumoniae; experiment: AUC (0 to 24 hrs) in erythromycin-resistant Streptococcus pneumoniae SR26132 clinical isolate expressing ermB gene in vitro pharmacodynamic model; type: ADME, organism-based; parameters: time < 24 hr; conditions: in vivo
[26] = tested on: Streptococcus pneumoniae; experiment: Maximum antibacterial activity against erythromycin-resistant Streptococcus pneumoniae SR26143 clinical isolate expressing mefA gene based on area above the killing curve index in vitro pharmacodynamic model; type: ADME, organism-based; conditions: in vivo
[27] = tested on: Streptococcus pneumoniae; experiment: Half life in erythromycin-resistant Streptococcus pneumoniae SR26143 clinical isolate expressing mefA gene in vitro pharmacodynamic model; type: ADME, organism-based; conditions: in vivo
[28] = tested on: Haemophilus influenzae; experiment: Ratio of AUC (0 to 24 hrs) to MIC in Haemophilus influenzae SR24169 clinical isolate by maximal efficacy criteria based in vitro pharmacodynamic model; type: functional
[29] = tested on: Haemophilus influenzae; experiment: %TMIC in Haemophilus influenzae SR24169 clinical isolate based on area above the killing curve index by half maximum antibacterial activity criteria based in vitro pharmacodynamic model; type: functional
[30] = tested on: Streptococcus pneumoniae; experiment: Ratio of AUC (0 to 24 hrs) to MIC in erythromycin-resistant Streptococcus pneumoniae SR26132 clinical isolate expressing ermB gene by bacteriostatic effect criteria based in vitro pharmacodynamic model; type: functional
[31] = tested on: Streptococcus pneumoniae; experiment: Half maximum antibacterial activity against erythromycin-resistant Streptococcus pneumoniae SR26143 clinical isolate expressing mefA gene based on area above the killing curve index in vitro pharmacodynamic model; type: ADME, organism-based; conditions: in vivo
[32] = tested on: Streptococcus pneumoniae; experiment: Ratio of AUC (0 to 24 hrs) to MIC in erythromycin-resistant Streptococcus pneumoniae SR26143 clinical isolate expressing mefA gene by bacteriostatic effect criteria based in vitro pharmacodynamic model; type: functional
[33] = tested on: Streptococcus pneumoniae; experiment: Half maximum antibacterial activity against erythromycin-susceptible Streptococcus pneumoniae SR26229 clinical isolate based on viable cell reduction at 24 hrs index in vitro pharmacodynamic model; type: ADME, organism-based
[34] = tested on: Streptococcus pneumoniae; experiment: Ratio of AUC (0 to 24 hrs) to MIC in erythromycin-resistant Streptococcus pneumoniae SR26143 clinical isolate expressing mefA gene by maximal efficacy criteria based in vitro pharmacodynamic model; type: functional
[35] = tested on: Streptococcus pneumoniae; experiment: Antibacterial activity against erythromycin-susceptible Streptococcus pneumoniae SR26229 clinical isolate by broth microdilution method; type: functional
[36] = tested on: Streptococcus pneumoniae; experiment: Half maximum antibacterial activity against erythromycin-resistant Streptococcus pneumoniae SR26132 clinical isolate expressing ermB gene based on viable cell reduction at 24 hrs index in vitro pharmacodynamic model; type: ADME, organism-based
[37] = tested on: Haemophilus influenzae; experiment: Ratio of AUC (0 to 24 hrs) to MIC in Haemophilus influenzae SR24169 clinical isolate based on area above the killing curve index by minimum antibacterial activity criteria based in vitro pharmacodynamic model; type: functional
[38] = tested on: Streptococcus pneumoniae; experiment: Minimum antibacterial activity against erythromycin-resistant Streptococcus pneumoniae SR26143 clinical isolate expressing mefA gene based on viable cell reduction at 24 hrs index in vitro pharmacodynamic model; type: ADME, organism-based
[39] = tested on: Haemophilus influenzae; experiment: Ratio of Cmax to MIC in Haemophilus influenzae SR24169 clinical isolate based on area above the killing curve index by minimum antibacterial activity criteria based in vitro pharmacodynamic model; type: functional
[40] = tested on: Streptococcus pneumoniae; experiment: Ratio of AUC (0 to 24 hrs) to MIC in erythromycin-susceptible Streptococcus pneumoniae SR26229 clinical isolate by bacteriostatic effect criteria based in vitro pharmacodynamic model; type: functional
[41] = tested on: Streptococcus pneumoniae; experiment: Cmax in erythromycin-resistant Streptococcus pneumoniae SR26143 clinical isolate expressing mefA gene in vitro pharmacodynamic model; type: ADME, organism-based; conditions: in vivo
[42] = tested on: Streptococcus pneumoniae; experiment: Cmax in erythromycin-susceptible Streptococcus pneumoniae SR26229 clinical isolate in vitro pharmacodynamic model; type: ADME, organism-based; conditions: in vivo
[43] = tested on: Streptococcus pneumoniae; experiment: Half life in erythromycin-resistant Streptococcus pneumoniae SR26132 clinical isolate expressing ermB gene in vitro pharmacodynamic model; type: ADME, organism-based; conditions: in vivo
[44] = tested on: Haemophilus influenzae; experiment: %TMIC in Haemophilus influenzae SR24169 clinical isolate based on viable cell reduction at 24 hrs index by maximum antibacterial activity criteria based in vitro pharmacodynamic model; type: functional
[45] = tested on: Streptococcus pneumoniae; experiment: Ratio of AUC (0 to 24 hrs) to MIC in erythromycin-resistant Streptococcus pneumoniae SR26132 clinical isolate expressing ermB gene by maximal efficacy criteria based in vitro pharmacodynamic model; type: functional
[46] = tested on: Haemophilus influenzae; experiment: Cmax in Haemophilus influenzae SR24169 clinical isolate in vitro pharmacodynamic model; type: ADME, organism-based; conditions: in vivo
[47] = tested on: Streptococcus pneumoniae; experiment: Cmax in erythromycin-resistant Streptococcus pneumoniae SR26132 clinical isolate expressing ermB gene in vitro pharmacodynamic model; type: ADME, organism-based; conditions: in vivo
[48] = tested on: Streptococcus pneumoniae; experiment: Maximum antibacterial activity against erythromycin-resistant Streptococcus pneumoniae SR26132 clinical isolate expressing ermB gene based on area above the killing curve index in vitro pharmacodynamic model; type: ADME, organism-based; conditions: in vivo
[49] = tested on: Streptococcus pneumoniae; experiment: Minimum antibacterial activity against erythromycin-susceptible Streptococcus pneumoniae SR26229 clinical isolate based on viable cell reduction at 24 hrs index in vitro pharmacodynamic model; type: ADME, organism-based
[50] = tested on: Streptococcus pneumoniae; experiment: Minimum antibacterial activity against erythromycin-resistant Streptococcus pneumoniae SR26132 clinical isolate expressing ermB gene based on viable cell reduction at 24 hrs index in vitro pharmacodynamic model; type: ADME, organism-based
[51] = tested on: Haemophilus influenzae; experiment: Half life in Haemophilus influenzae SR24169 clinical isolate in vitro pharmacodynamic model; type: ADME, organism-based; conditions: in vivo
[52] = tested on: Haemophilus influenzae; experiment: Ratio of AUC (0 to 24 hrs) to MIC in Haemophilus influenzae SR24169 clinical isolate based on viable cell reduction at 24 hrs index by minimum antibacterial activity criteria based in vitro pharmacodynamic model; type: functional
[53] = tested on: Streptococcus pneumoniae; experiment: Half maximum antibacterial activity against erythromycin-susceptible Streptococcus pneumoniae SR26229 clinical isolate based on area above the killing curve index in vitro pharmacodynamic model; type: ADME, organism-based; conditions: in vivo
[54] = tested on: Streptococcus pneumoniae; experiment: Antibacterial activity against erythromycin-resistant Streptococcus pneumoniae SR26143 clinical isolate expressing mefA gene by broth microdilution method; type: functional
[55] = tested on: Haemophilus influenzae; experiment: Ratio of AUC (0 to 24 hrs) to MIC in Haemophilus influenzae SR24169 clinical isolate based on area above the killing curve index by maximum antibacterial activity criteria based in vitro pharmacodynamic model; type: functional
[56] = tested on: Streptococcus pneumoniae; experiment: AUC (0 to 24 hrs) in erythromycin-susceptible Streptococcus pneumoniae SR26229 clinical isolate in vitro pharmacodynamic model; type: ADME, organism-based; parameters: time < 24 hr; conditions: in vivo

CC[C@H]1OC(=O)[C@H](C)C(=O)[C@H](C)[C@@H](O[C@@H]2O[C@H](C)C[C@H](N(C)C)[C@H]2O)[C@@]2(C)C[C@@H](C)/C(=N\C(C)=O)[C@H](C)C(OC/C(=N\OCc3ccc(-n4cccn4)nc3)CO2)[C@]1(C)O (single isomer, unassigned)
Activity [1]: 0
Activity [2]: 5.98
Activity [3]: 6.12
Ratio [4]: 6.0956
Ratio [5]: -2.3622
Activity [6]: 8.75
Activity [7]: 78.23
Ratio [8]: 6.4436
MIC [9]: 0.25 µg/mL (≈ 0.297 µM)
Ratio [10]: 0.6894
Activity [11]: 6.22
Ratio [12]: 75.7785
Ratio [13]: 6.9338
t1/2 [14]: 17.6 h
Ratio [15]: 10.1172
Ratio [16]: 0
Ratio [17]: 79.0912
Ratio [18]: 9.63
AUC [19]: 8610 ng·h/mL
MIC [20]: 8 µg/mL (≈ 9.51 µM)
AUC [21]: 140 ng·h/mL
Activity [22]: 15.89
Ratio [23]: 16.3
Ratio [24]: -1.1805
AUC [25]: 280 ng·h/mL
Activity [26]: 80.2
t1/2 [27]: 17.6 h
Ratio [28]: 10.8
Ratio [29]: 3.0676
Ratio [30]: 4.66
Activity [31]: 16.64
Ratio [32]: 15.2
Activity [33]: 9.35
Ratio [34]: 22.3
MIC [35]: 0.063 µg/mL (≈ 0.0749 µM)
Activity [36]: 5.11
Ratio [37]: 0
Activity [38]: 2.36
Ratio [39]: 0
Ratio [40]: 9.01
Cmax [41]: 8 ng/mL
Cmax [42]: 4 ng/mL
t1/2 [43]: 17.6 h
Ratio [44]: 4.6778
Ratio [45]: 22
Cmax [46]: 506 ng/mL
Cmax [47]: 16 ng/mL
Activity [48]: 84.15
Activity [49]: 2.64
Activity [50]: -2.14
t1/2 [51]: 2.22 h
Ratio [52]: -2.4461
Activity [53]: 9.96
MIC [54]: 0.125 µg/mL (≈ 0.149 µM)
Ratio [55]: 80.2825
AUC [56]: 70 ng·h/mL
